6 compounds from ChEMBL document CHEMBL4371003, “Discovery of Novel Dual Mechanism of Action Src Signaling and Tubulin Polymerization Inhibitors (KX2-391 and KX2-361)” (J Med Chem, 2018) can be followed below.

A word on the IC50: it is the concentration needed to halve the response being measured. The term GI50 denotes the concentration giving 50% growth inhibition. The Ki is a dissociation constant, usually derived from enzyme kinetics or from competition with a known ligand. Broadly, the bioavailability is dose-corrected exposure relative to a reference, in per cent. High values mean much systemic uptake, low ones little systemic uptake.

Data set [1] concerns KM12. The experiment in a line: Antitumor activity against human KM12 cells. The format is functional, cell-based.
For data set [2], the system named is NCI-H460. The experiment in a line: Antitumor activity against human NCI-H460 cells. In kind it is functional, cell-based.
Data set [3] deals with A549. The experiment in a line: Antitumor activity against human A549 cells. The format is functional, cell-based.
Data set [4] has as its target T1, Proto-oncogene tyrosine-protein kinase Src (Homo sapiens, UniProt P12931). The experiment in a line: Inhibition of human recombinant pp60c-src expressed in baculovirus infected Sf9 insect cells using poly(Glu,Tyr) 4:1 as substrate after 15 mins.
The target of data set [5] is T1, Proto-oncogene tyrosine-protein kinase Src. The experiment in a line: Inhibition of human c-SRC expressed in mouse NIH/3T3 cells assessed as reduction in cell growth. The format is cell-based.
A short description of data set [6]: Inhibition of human c-SRC expressed in mouse NIH/3T3 cells assessed as reduction in BrdU incorporation after 24 hrs by ELISA. For orientation: Dividing cells build labelled thymidine or BrdU into new DNA.
Data set [7] concerns the target T2, Insulin receptor (Homo sapiens, UniProt P06213). The experiment in a line: Non-competitive inhibition of human placental insulin receptor expressed in CHO cell membrane assessed as decrease in insulin-stimulated A2 phosphorylation preincubated for 15 mins followed by substrate addition and measured after 15 mins in presence of [gamma-32P]ATP by Dixon plot analysis. In kind it is cell-based.

For data set [8], the target named is T2, Insulin receptor. The experiment in a line: Inhibition of human placental insulin receptor expressed in CHO cells assessed as decrease in insulin-stimulated [3H]-2-deoxyglucose uptake preincubated for 1 hr. The format is cell-based.
For data set [9], the system named is HT-29. The experiment in a line: Antiproliferative activity against human HT-29 cells in presence of 1.5% FCS by BrdU incorporation assay. The format is functional, cell-based.
The subject of data set [10] is KM12. The experiment in a line: Antiproliferative activity against human KM12 cells by BrdU incorporation assay. The format is functional.
A short description of data set [11]: Oral bioavailability in mouse. The format is ADME, organism-based. To be noted: in vivo.

SMILES strings stand for the structures. Bounds are passed on as bounds.

T1 sequence (P12931 2-536 limits assumed): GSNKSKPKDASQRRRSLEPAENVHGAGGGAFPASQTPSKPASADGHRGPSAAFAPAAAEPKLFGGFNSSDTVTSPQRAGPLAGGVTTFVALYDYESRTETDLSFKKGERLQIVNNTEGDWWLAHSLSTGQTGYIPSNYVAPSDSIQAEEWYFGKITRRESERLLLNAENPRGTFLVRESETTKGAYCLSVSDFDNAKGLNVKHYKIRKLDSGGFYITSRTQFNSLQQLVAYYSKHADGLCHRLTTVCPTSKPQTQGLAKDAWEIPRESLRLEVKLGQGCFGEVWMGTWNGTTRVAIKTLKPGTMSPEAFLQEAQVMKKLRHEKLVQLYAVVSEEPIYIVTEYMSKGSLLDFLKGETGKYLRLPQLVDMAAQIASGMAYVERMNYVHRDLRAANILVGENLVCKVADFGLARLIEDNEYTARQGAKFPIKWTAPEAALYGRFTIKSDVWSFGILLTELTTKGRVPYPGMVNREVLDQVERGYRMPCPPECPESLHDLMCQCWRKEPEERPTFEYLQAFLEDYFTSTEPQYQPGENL
T2 sequence (P06213 28-758 limits assumed): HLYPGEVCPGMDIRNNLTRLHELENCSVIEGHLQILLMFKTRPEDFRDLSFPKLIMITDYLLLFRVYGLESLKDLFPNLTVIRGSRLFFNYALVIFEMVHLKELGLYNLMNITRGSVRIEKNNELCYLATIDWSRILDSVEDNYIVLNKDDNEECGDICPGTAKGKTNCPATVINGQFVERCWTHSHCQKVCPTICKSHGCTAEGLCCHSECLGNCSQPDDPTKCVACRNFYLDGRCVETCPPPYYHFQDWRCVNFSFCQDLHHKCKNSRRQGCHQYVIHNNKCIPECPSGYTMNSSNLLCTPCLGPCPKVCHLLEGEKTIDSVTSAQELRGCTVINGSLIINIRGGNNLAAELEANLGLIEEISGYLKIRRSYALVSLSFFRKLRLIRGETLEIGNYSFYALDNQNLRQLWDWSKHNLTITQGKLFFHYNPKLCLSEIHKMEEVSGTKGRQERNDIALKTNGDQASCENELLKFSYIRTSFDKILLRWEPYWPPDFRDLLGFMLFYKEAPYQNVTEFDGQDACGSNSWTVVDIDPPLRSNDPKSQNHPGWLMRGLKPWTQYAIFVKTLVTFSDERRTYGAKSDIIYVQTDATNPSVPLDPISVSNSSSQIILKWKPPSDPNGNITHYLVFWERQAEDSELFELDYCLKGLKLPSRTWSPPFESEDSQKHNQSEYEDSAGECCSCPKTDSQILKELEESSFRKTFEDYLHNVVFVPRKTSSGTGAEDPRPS
T2 sequence (P06213 763-1382 limits assumed): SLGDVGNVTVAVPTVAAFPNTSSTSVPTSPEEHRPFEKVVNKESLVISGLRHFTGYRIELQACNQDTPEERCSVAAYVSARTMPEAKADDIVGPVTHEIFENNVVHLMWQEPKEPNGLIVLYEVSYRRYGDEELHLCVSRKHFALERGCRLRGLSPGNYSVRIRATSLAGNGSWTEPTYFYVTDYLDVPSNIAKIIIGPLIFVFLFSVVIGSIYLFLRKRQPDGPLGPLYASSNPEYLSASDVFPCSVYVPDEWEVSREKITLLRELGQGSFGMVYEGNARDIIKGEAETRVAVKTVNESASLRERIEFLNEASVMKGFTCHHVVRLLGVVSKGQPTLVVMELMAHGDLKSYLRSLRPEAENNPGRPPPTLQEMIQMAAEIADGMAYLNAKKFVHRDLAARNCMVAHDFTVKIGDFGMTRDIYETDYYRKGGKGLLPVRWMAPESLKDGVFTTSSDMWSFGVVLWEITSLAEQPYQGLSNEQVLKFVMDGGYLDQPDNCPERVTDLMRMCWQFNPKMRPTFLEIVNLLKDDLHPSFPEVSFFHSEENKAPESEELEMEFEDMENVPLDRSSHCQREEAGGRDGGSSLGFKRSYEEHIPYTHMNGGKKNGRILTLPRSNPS

For the compound `O=C(NCc1cccc(O)c1)c1cc2cc(O)ccc2[nH]1`, the results for the IC50 in data set [1], in data set [2] and in data set [3] were 4.2 µM, 59 µM and 41 µM, respectively.

With `COc1cc2c(Nc3c(Cl)ccc4c3OCO4)ncnc2cc1OCCCN1CCCCC1`, the IC50 is under 0.004 µM in [4] and 0.11 µM in [6]. For the same compound, the GI50 in [5] stood at 0.087 µM.

On to `O=P(O)(O)C(O)c1ccc2ccccc2c1` (stereo not drawn), for which the Ki in data set [7] amounted to 95 µM. For the same compound, in [8], the IC50 was determined as 10 µM.

Take `O=C(Cc1ccc(-c2ccccc2)cc1)NCc1cccc(F)c1`: the IC50 in [9] is 0.877 µM. Further, the GI50 in data set [10] came to 0.41 µM.

Consider `O=C(NCc1cccc(F)c1)c1cc2cc(F)ccc2[nH]1`, for which 15 µM corresponded to half-maximal inhibition in [2] (IC50).

For `O=C(Cc1ccc(-c2ccc(OCCN3CCOCC3)cc2)cn1)NCc1cccc(F)c1`, the IC50 in data set [9] stood at 0.111 µM. This compound also registered a bioavailability in [11] of 64%.
